Reference: the NIST ThermoML archive (doi:10.1021/je500917k)

Test: xn = mol fraction of the nth substance listed
Settings: 100 kPa, Liquid; for speed of sound: Frequency=2 MHz

CCN1CCCC1=O [1-ethyl-2-pyrrolidinone] + CNCCO
Settings	mass density [kg/m3]	speed of sound [m/s]	viscosity [mPa·s]
293.15 K, x1 = 0.0905	947.11	1479.8	9.188
293.15 K, x1 = 0.1825	953.11	1478.5	6.79
293.15 K, x1 = 0.2767	958.92	1478.5	5.162
293.15 K, x1 = 0.3731	964.75	1480.1	4.095
293.15 K, x1 = 0.4713	970.4	1483.1	3.496
293.15 K, x1 = 0.5725	975.84	1486.9	2.951
293.15 K, x1 = 0.6756	981.28	1491.4	2.648
293.15 K, x1 = 0.7808	986.73	1497.9	2.358
293.15 K, x1 = 0.8888	992.12	1504.7	2.231
293.15 K, x1 = 1	997.71	1512.1	2.117
303.15 K, x1 = 0.0905	939.11	1447.2	6.239
303.15 K, x1 = 0.1825	944.94	1445.2	4.715
303.15 K, x1 = 0.2767	950.62	1444.1	3.747
303.15 K, x1 = 0.3731	956.31	1444.9	3.068
303.15 K, x1 = 0.4713	961.92	1447.3	2.666
303.15 K, x1 = 0.5725	967.33	1450.6	2.339
303.15 K, x1 = 0.6756	972.75	1454.6	2.125
303.15 K, x1 = 0.7808	978.18	1460.6	1.94
303.15 K, x1 = 0.8888	983.56	1467	1.83
303.15 K, x1 = 1	989.14	1474.2	1.771
313.15 K, x1 = 0.0905	931.05	1414.1	4.394
313.15 K, x1 = 0.1825	936.73	1411.3	3.488
313.15 K, x1 = 0.2767	942.28	1409.4	2.89
313.15 K, x1 = 0.3731	947.87	1409.5	2.409
313.15 K, x1 = 0.4713	953.42	1411.6	2.123
313.15 K, x1 = 0.5725	958.78	1414.3	1.914
313.15 K, x1 = 0.6756	964.1	1418	1.776
313.15 K, x1 = 0.7808	969.61	1423.5	1.639
313.15 K, x1 = 0.8888	974.99	1429.4	1.546
313.15 K, x1 = 1	980.56	1436	1.518
323.15 K, x1 = 0.0905	922.92	1381	3.293
323.15 K, x1 = 0.1825	928.44	1377.6	2.683
323.15 K, x1 = 0.2767	933.89	1375.1	2.267
323.15 K, x1 = 0.3731	939.38	1374.6	1.943
323.15 K, x1 = 0.4713	944.88	1376.1	1.747
323.15 K, x1 = 0.5725	950.21	1378.3	1.58
323.15 K, x1 = 0.6756	955.61	1381.7	1.478
323.15 K, x1 = 0.7808	961.03	1386.8	1.41
323.15 K, x1 = 0.8888	966.4	1392.3	1.331
323.15 K, x1 = 1	971.96	1398.5	1.299

CCNCCO [2-(ethylamino)ethanol] + CCN1CCCC1=O
Settings	mass density [kg/m3]	speed of sound [m/s]	viscosity [mPa·s]
293.15 K, x2 = 0	917.79	1442.4	15.28
293.15 K, x2 = 0.111	925.54	1444.5	10.35
293.15 K, x2 = 0.2179	933.77	1448.8	7.447
293.15 K, x2 = 0.3242	941.8	1453.7	5.665
293.15 K, x2 = 0.4274	949.86	1459.7	4.571
293.15 K, x2 = 0.5359	958.36	1468	3.849
293.15 K, x2 = 0.6269	965.64	1473.3	3.126
293.15 K, x2 = 0.7225	973.71	1482	2.717
293.15 K, x2 = 0.8177	981.7	1491.1	2.458
293.15 K, x2 = 0.9095	989.6	1501	2.261
303.15 K, x2 = 0	909.82	1408.3	9.59
303.15 K, x2 = 0.111	917.42	1409.8	6.874
303.15 K, x2 = 0.2179	925.53	1413.7	5.212
303.15 K, x2 = 0.3242	933.46	1418.1	4.093
303.15 K, x2 = 0.4274	941.44	1423.5	3.257
303.15 K, x2 = 0.5359	949.89	1431.6	2.917
303.15 K, x2 = 0.6269	957.14	1436.5	2.458
303.15 K, x2 = 0.7225	965.19	1445	2.205
303.15 K, x2 = 0.8177	973.17	1453.7	2.013
303.15 K, x2 = 0.9095	981.06	1463.3	1.891
313.15 K, x2 = 0	901.79	1374.5	6.406
313.15 K, x2 = 0.111	909.24	1375.4	4.824
313.15 K, x2 = 0.2179	917.23	1378.8	3.79
313.15 K, x2 = 0.3242	925.07	1382.8	3.092
313.15 K, x2 = 0.4274	932.99	1387.9	2.609
313.15 K, x2 = 0.5359	941.38	1395.5	2.311
313.15 K, x2 = 0.6269	948.61	1400	1.979
313.15 K, x2 = 0.7225	956.65	1408.2	1.834
313.15 K, x2 = 0.8177	964.63	1416.7	1.684
313.15 K, x2 = 0.9095	972.5	1425.7	1.578
323.15 K, x2 = 0	893.68	1340.9	4.527
323.15 K, x2 = 0.111	900.98	1341.1	3.563
323.15 K, x2 = 0.2179	908.86	1344.1	2.873
323.15 K, x2 = 0.3242	916.63	1347.7	2.399
323.15 K, x2 = 0.4274	924.49	1352.5	2.053
323.15 K, x2 = 0.5359	932.84	1359.8	1.833
323.15 K, x2 = 0.6269	940.06	1364.2	1.664
323.15 K, x2 = 0.7225	948.09	1372	1.547
323.15 K, x2 = 0.8177	956.06	1380	1.435
323.15 K, x2 = 0.9095	963.93	1388.8	1.367
